Results reported in patent publication EP0745595A1, “3-(3-Aryloxyphenyl)-1-(substituted methyl)-s-triazine-2,4,6-oxo or thiotrione herbicidal agents” (American Cyanamid Company, priority 1995, dated 1996).

How the values were obtained:
Assay type in all cases: in vivo
IPOMOEA SPP. = assay: Postemergence herbicidal evaluation, IPOSS (Morningglory spp.)
Procedure, shortened: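 In this greenhouse postemergence herbicide test on Ipomoea spp. (morningglory), compounds in 50/50 acetone/water with 0.5% TWEEN®20 were sprayed at 40 psi onto seedlings about two weeks old grown in jiffy flats. After four to five weeks, injury was scored on a 0-9 scale covering stand, vigor, malformation, size, chlorosis and overall appearance versus control, with repeat tests averaged.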

[1] = system: TRITICUM AESTIVUM, CV. APOLLO; assay: Postemergence herbicidal evaluation, TRZAWO (Wheat, Winter, CV. APOLLO)
Method: In the tests, seedling plants are grown in jiffy flats for about two weeks. The test compounds are dispersed in 50/50 acetone/water mixtures containing 0.5% TWEEN®20, a polyoxyethylene sorbitan monolaurate surfactant of Atlas Chemical Industries, […] through a spray nozzle operating at 40 psi for a predetermined time. After spraying, the plants are placed on greenhouse benches and are cared for in the usual manner, commensurate with conventional greenhouse practices. From four to five weeks after treatment, the seedling plants are examined and rated according to the rating system set forth below. Where more than one test is involved for a given compound, the data are averaged.
(§1) Plant species employed in these evaluations are reported by header abbreviation, common name and scientific name.
(§2) Results of herbicide evaluation are expressed on a rating scale (0-9). The scale is based upon a visual observation of plant stand, vigor, malformation, size, chlorosis and overall plant appearance as compared with a control.

[2] = system: ORYZA SATIVA, L. TEBONNET; assay: Postemergence herbicidal evaluation, ORYSAT (Rice, Tebonnet); design: key: 0-9 visual rating scale vs untreated control
Method: (§3) In the tests, seedling plants are grown in jiffy flats for about two weeks. The test compounds are dispersed in 50/50 acetone/water mixtures containing 0.5% TWEEN®20, a polyoxyethylene sorbitan monolaurate surfactant of Atlas Chemical Industries, in sufficient quantities to provide the equivalent of about 0.125 kg to 0.500 kg per hectare of active compound when applied to the plants through a spray nozzle operating at 40 psi for a predetermined time. After spraying, the plants are placed on greenhouse benches and are cared for in the usual manner, commensurate with conventional greenhouse practices. From four to five weeks after treatment, the seedling plants are examined and rated according to the rating system set forth below. Where more than one test is involved for a given compound, the data are averaged.
as §1, §2

CHENOPODIUM ALBUM, L. [3] = assay: Postemergence herbicidal evaluation, CHEAL (Lambsquarters, Common)
Method: (§4) In the tests, seedling plants are grown in jiffy flats for about two weeks. The test compounds are dispersed in 50/50 acetone/water mixtures containing 0.5% TWEEN®20, a polyoxyethylene sorbitan monolaurate surfactant of Atlas Chemical Industries, […] to the plants through a spray nozzle operating at 40 psi for a predetermined time. After spraying, the plants are placed on greenhouse benches and are cared for in the usual manner, commensurate with conventional greenhouse practices. From four to five weeks after treatment, the seedling plants are examined and rated according to the rating system set forth below. Where more than one test is involved for a given compound, the data are averaged.
as §1, §2

[4] = system: ECHINOCHLOA CRUS-GALLI, (L) BEAU; assay: Postemergence herbicidal evaluation, ECHCG (Barnyardgrass); design: key to ECHCG rating / Herbicidal effect rating, ECHCG / ECHCG: 0-9 visual rating scale vs untreated control
Method: as §3, §1, §2

CASSIA OBTUSIFOLIA, L. = assay: Postemergence herbicidal evaluation, CASOB (Sicklepod); design: key to CASOB rating / Herbicidal effect rating, CASOB / CASOB: 0-9 visual rating scale vs untreated control
Method: as §3, §1, §2

CHENOPODIUM ALBUM, L. [5] = assay: Preemergence herbicidal evaluation, CHEAL (Lambsquarters, Common);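 note: higher means more injury with 8 approaching complete kill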
Description: as §2
The preemergence herbicidal activity of the test compounds of the present invention is exemplified by the following tests in which the seeds of a variety of monocotyledonous and dicotyledonous plants are separately mixed with potting soil and planted on top of approximately one inch of soil in separate pint cups. […] The treated cups are then placed on greenhouse benches, watered and cared for in accordance with conventional greenhouse procedures. From four to five weeks after treatment, the tests are terminated and each cup is examined and rated according to the rating system provided in Example 40.
The compounds evaluated are reported by compound number given in Example 40.

ZEA MAYS L. = assay: Postemergence herbicidal evaluation, ZEAMX (Corn, Field)
Method: as §4, §1, §2

[6] = system: ABUTILON THEOPHRASTI, MEDIC.; assay: Postemergence herbicidal evaluation, ABUTH (Velvetleaf)
Procedure, shortened: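 This postemergence herbicide test used two-week-old velvetleaf seedlings grown in jiffy flats. Each compound was sprayed at 40 psi as a dispersion in 50/50 acetone/water with 0.5% TWEEN®20 surfactant. Plants then received routine greenhouse care. After four to five weeks, injury was scored visually on a 0-9 scale against a control, and replicate tests were averaged.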

[7] = system: ORYZA SATIVA, L. TEBONNET; assay: Rice tolerance to post-transplant applications under flooded paddy conditions, ORYSAT (Rice, Tebonnet); details: post-transplanted rice
Method: as §2
The tolerance of transplanted rice to post-transplanted herbicide applications is determined as follows: two ten-day-old rice seedlings (CV. Tebonnet) are transplanted into a silt loam soil in 32 oz. plastic containers with a diameter of 10.5 cm and no drainage holes. After transplanting the containers are flooded and the water level is maintained at 1.5 to 3 cm above the soil surface. […] The treated containers are placed on greenhouse benches, watered such that the water level is maintained as stated above, and cared for according to normal greenhouse procedures. Three to four weeks after treatment the test is terminated and each container is examined and herbicidal effect rated according to the rating system provided in Example 40. The compounds evaluated are reported by compound number given in Example 40.
Plant species employed in this example are reported by header abbreviation, common name and scientific name.

[8] = system: GLYCINE MAX(L) MERR. CV. WILLIAMS; assay: Postemergence herbicidal evaluation, GLXMAW (Soybean, Williams); design: key to GLXMAW rating / Herbicidal effect rating, GLXMAW / GLXMAW: 0-9 visual rating scale vs untreated control
Method: as §3, §1, §2

[9] = system: SETARIA VIRIDIS, (L) BEAU; assay: Postemergence herbicidal evaluation, SETVI (Foxtail, Green); design: key to SETVI rating / Herbicidal effect rating, SETVI / SETVI: 0-9 visual rating scale vs untreated control
Method: as §3, §1, §2

[10] = system: AMBROSIA ARTEMISIIFOLIA, L.; assay: Postemergence herbicidal evaluation, AMBEL (Ragweed, Common)
Method: as §4, §1, §2

GALIUM APARINE = assay: Postemergence herbicidal evaluation, GALAP (Galium); design: key to GALAP rating / Herbicidal effect rating, GALAP / GALAP: 0-9 visual rating scale vs untreated control
Method: as §3, §1, §2

Cn1c(=O)[nH]c(=O)n(-c2cc(Oc3ccc(C(F)(F)F)cc3Cl)ccc2[N+](=O)[O-])c1=O [B, reference compound]
Herbicidal effect rating, IPOSS (IPOMOEA SPP.; 0.031 kg/ha): 8.0 | Herbicidal effect rating, IPOSS (IPOMOEA SPP.; 0.063 kg/ha): 9.0 | Herbicidal effect rating, IPOSS (IPOMOEA SPP.; 0.125 kg/ha): 8.0 | Herbicidal effect rating, IPOSS (IPOMOEA SPP.; 0.250 kg/ha): 9.0 | Herbicidal effect rating, TRZAWO ([1]; 0.031 kg/ha): 3.0 | Herbicidal effect rating, TRZAWO ([1]; 0.063 kg/ha): 3.0 | Herbicidal effect rating, TRZAWO ([1]; 0.125 kg/ha): 4.0 | Herbicidal effect rating, TRZAWO ([1]; 0.250 kg/ha): 4.3 | Herbicidal effect rating, ORYSAT ([2]; 0.031 kg/ha): 4.0 | Herbicidal effect rating, ORYSAT ([2]; 0.063 kg/ha): 4.5 | Herbicidal effect rating, ORYSAT ([2]; 0.125 kg/ha): 5.5 | Herbicidal effect rating, ORYSAT ([2]; 0.250 kg/ha): 5.0 | Herbicidal effect rating, CHEAL (CHENOPODIUM ALBUM, L. [3]; 0.031 kg/ha): 2.0 | Herbicidal effect rating, CHEAL (CHENOPODIUM ALBUM, L. [3]; 0.063 kg/ha): 2.5 | Herbicidal effect rating, CHEAL (CHENOPODIUM ALBUM, L. [3]; 0.125 kg/ha): 7.0 | Herbicidal effect rating, CHEAL (CHENOPODIUM ALBUM, L. [3]; 0.250 kg/ha): 4.5 | Herbicidal effect rating, ECHCG ([4]; 0.031 kg/ha): 1.0 | Herbicidal effect rating, ECHCG ([4]; 0.063 kg/ha): 2.0 | Herbicidal effect rating, ECHCG ([4]; 0.125 kg/ha): 3.0 | Herbicidal effect rating, ECHCG ([4]; 0.250 kg/ha): 3.5 | Herbicidal effect rating, CASOB (CASSIA OBTUSIFOLIA, L.; 0.031 kg/ha): 3.5 | Herbicidal effect rating, CASOB (CASSIA OBTUSIFOLIA, L.; 0.063 kg/ha): 4.0 | Herbicidal effect rating, CASOB (CASSIA OBTUSIFOLIA, L.; 0.125 kg/ha): 8.0 | Herbicidal effect rating, CASOB (CASSIA OBTUSIFOLIA, L.; 0.250 kg/ha): 5.5 | CHEAL (CHENOPODIUM ALBUM, L. [5]; Rate 0.031 kg/ha): 4.5 | CHEAL (CHENOPODIUM ALBUM, L. [5]; Rate 0.063 kg/ha): 4.5 | CHEAL (CHENOPODIUM ALBUM, L. [5]; Rate 0.125 kg/ha): 4.5 | CHEAL (CHENOPODIUM ALBUM, L. [5]; Rate 0.250 kg/ha): 4.5 | Herbicidal effect rating, ZEAMX (ZEA MAYS L.; 0.031 kg/ha): 3.3 | Herbicidal effect rating, ZEAMX (ZEA MAYS L.; 0.063 kg/ha): 3.3 | Herbicidal effect rating, ZEAMX (ZEA MAYS L.; 0.125 kg/ha): 4.5 | Herbicidal effect rating, ZEAMX (ZEA MAYS L.; 0.250 kg/ha): 4.3 | Herbicidal effect rating, ABUTH ([6]; 0.031 kg/ha): 4.5 | Herbicidal effect rating, ABUTH ([6]; 0.063 kg/ha): 7.0 | Herbicidal effect rating, ABUTH ([6]; 0.125 kg/ha): 7.0 | Herbicidal effect rating, ABUTH ([6]; 0.250 kg/ha): 9.0 | ORYSAT ([7]; Rate 0.031 kg/ha): 2.0 | ORYSAT ([7]; Rate 0.063 kg/ha): 3.0 | ORYSAT ([7]; Rate 0.125 kg/ha): 2.5 | ORYSAT ([7]; Rate 0.250 kg/ha): 4.5 | Herbicidal effect rating, GLXMAW ([8]; 0.031 kg/ha): 3.3 | Herbicidal effect rating, GLXMAW ([8]; 0.063 kg/ha): 4.0 | Herbicidal effect rating, GLXMAW ([8]; 0.125 kg/ha): 4.0 | Herbicidal effect rating, GLXMAW ([8]; 0.250 kg/ha): 4.3 | Herbicidal effect rating, SETVI ([9]; 0.031 kg/ha): 0.5 | Herbicidal effect rating, SETVI ([9]; 0.063 kg/ha): 1.0 | Herbicidal effect rating, SETVI ([9]; 0.125 kg/ha): 0.0 | Herbicidal effect rating, SETVI ([9]; 0.250 kg/ha): 2.0 | Herbicidal effect rating, AMBEL ([10]; 0.031 kg/ha): 3.0 | Herbicidal effect rating, AMBEL ([10]; 0.063 kg/ha): 4.5 | Herbicidal effect rating, AMBEL ([10]; 0.125 kg/ha): 8.0 | Herbicidal effect rating, AMBEL ([10]; 0.250 kg/ha): 7.0 | Herbicidal effect rating, GALAP (GALIUM APARINE; 0.031 kg/ha): 2.0 | Herbicidal effect rating, GALAP (GALIUM APARINE; 0.063 kg/ha): 2.5 | Herbicidal effect rating, GALAP (GALIUM APARINE; 0.125 kg/ha): 7.0 | Herbicidal effect rating, GALAP (GALIUM APARINE; 0.250 kg/ha): 4.5
